What was measured:
LDHA = LDHA (Homo sapiens, UniProt P00338); conditions: literature; cited from earlier work
cells = conditions: literature; cited from earlier work
[1] = tested on: FC1199 pancreatic cancer cells; assay: Cytotoxicity (viability/proliferation/necrosis) assay, FC1199; type: cell-based; conditions: Mus musculus, Pancreatic cancer cell; FC-1199, 48 hr; read-out: Cytotoxicity IC50 ± SD, FC-1199
Method: (§1) Cytotoxicity study: Anticancer potency was investigated using a fluorescence-based high throughput confocal microscopy cell viability/proliferation/cell death assay. […] Selected compounds were also tested in the FC1199 pancreatic cancer line from the KPC-1 genetically engineered mouse model. Compounds were also tested in hTERT immortalized normal pancreatic (HPNE) cell lines to rule out nonspecific cytotoxicity of compounds.
(§2) Cell lines. The human PANC-1, MiaPaCa-2, and HPNE cell lines were obtained from American Type Culture Collection (ATCC, Manassas, VA, USA). Mouse pancreatic cancer FC1199 cells were obtained from the KPC-1 genetically engineered mouse model that has mutated K-Ras, metastasizes to the liver, and forms desmoplasia.
(§3) Cytotoxicity assay. Cytotoxicity was assessed using the viability/proliferation/necrosis assay. […] Confocal images were acquired using the Operetta High Content Imaging System (PerkinElmer). […] SYTOX Green will be detected using an excitation wavelength of 500-520 nm and an emission wavelength of 520-530 nm. Brightfield images will also be acquired for each field. […] Cell counts were summed over the five fields for each well, and the percentage of viable cells was calculated relative to the untreated control.

PANC-1 cells = assay: Cytotoxicity (viability/proliferation/necrosis) assay, PANC-1; type: cell-based; conditions: Homo sapiens; PANC-1, 48 hr, normoxic; read-out: Cytotoxicity IC50 ± SD, PANC-1
Method: as §1, §2, §3

[2] = Cytotoxicity assay in hTERT immortalized normal pancreatic cells; type: cell-based; conditions: human, HPNE cells (hTERT immortalized normal pancreatic cells), read-out: Cytotoxicity IC50 ± SD, HPNE Normal
Method: as §1, §2, §3

hLDH5 (LDHA) = hLDH5 (LDHA) (Homo sapiens, UniProt P00338); assay: Biochemical LDHA (hLDH5) inhibition assay, NADH fluorescence; conditions: read-out: LDHA inhibition IC50 ± SD
Method: Biochemical LDHA inhibition assay: The hLDH5 (LDHA) enzymatic activity was measured by fluorescence (excitation@ 340 nm, emission@ 460 nm) to monitor the rate of conversion of NADH to NAD+at 37° C.
The hLDH5 (LDHA) inhibition assay was performed by measuring the fluorescence (excitation@ 340 nm, emission@ 460 nm) and monitoring the rate of conversion of NADH to NAD+at 37° C. as reported. […] The stock solution of compounds was prepared in DMSO. […] The experiment involved adding a solution of compounds in DMSO to the enzyme and NADH in a phosphate buffer. The assay plate was incubated at 25° C. for 10 minutes, and a baseline read was taken, after which pyruvate was added. The fluorescence was read for 5 minutes every 30 seconds in a microplate reader. The slope of a suitable linear timeframe was calculated with the curve bottom assigned to the initial 5-second recording before adding pyruvate (background rate) and the curve top to the negative (DMSO only) control wells rate. IC50 values were determined from dose-response curves using four-parameter logistic non-linear regression analysis in Prism Software v9.0. The assays were performed in triplicates and the data is presented as mean±SD (n=3).

[3] = tested on: HeLa human cervical carcinoma cells; conditions: literature; normoxic conditions stated for NHI-2; cited from earlier work
[4] = tested on: human pancreatic and lymphoma cancer xenografts; conditions: literature; cited from earlier work
cancer cell growth = conditions: literature, hypoxic conditions; read-out: IC50, inhibition of cancer cell growth; cited from earlier work
[5] = literature; cited from earlier work
Snu398 cells = conditions: literature; read-out: cell viability EC50 in Snu398 cells; cited from earlier work
PDAC cells = conditions: literature; cited from earlier work
PANC-1 = conditions: literature, normoxic conditions; read-out: viability IC50 in PANC-1; cited from earlier work
MIA PaCa-2 = conditions: literature; read-out: cell viability IC50 in MIA PaCa-2; cited from earlier work

Molecule | IC50 [1] [µM] | IC50 (PANC-1 cells) [µM] | IC50 at 48 hr [2] [µM] | further results
Cc1nc2ccc(NC(=O)CCNC(=O)CCCc3ccc(CC(C(=O)O)C(=O)O)cc3)cc2s1 [AZ33] |  |  |  | IC50 (LDHA): 0.5 µM; cellular activity (cells): inactive in cells
COC(=O)C(CC(=O)Nc1ccc(C(=O)c2nccn2C)cc1)c1ccc(C(F)(F)F)cc1 (centres unmarked) [Compound 4] | 12.1 ± 1.2 | 23.9 ± 1.8 | 49.5 ± 7.3 | 
Cn1ccnc1C(=O)c1ccc(NC(=O)CC(C(=O)O)c2ccc(C(F)(F)F)cc2)cc1 (centres unmarked) [Compound 5] | 20.8 ± 2.97 | 43.3 ± 3.98 | > 50 | 
COC(=O)C(CC(=O)Nc1ccc(C(=O)N2CCc3ccccc32)cc1)c1ccc(C(F)(F)F)cc1 (centres unmarked) [Compound 17] | 73.4 ± 6.8 | 24.2 ± 1.08 | 50.7 ± 3.6 | 
O=C(CC(C(=O)O)c1ccc(C(F)(F)F)cc1)Nc1ccc(C(=O)N2CCc3ccccc32)cc1 (centres unmarked) [Compound 19] | 56.5 | 43.1 ± 4.87 | > 50 | 
COC(=O)C(CC(=O)Nc1ccc(F)cn1)c1ccc(C(F)(F)F)cc1 (centres unmarked) [Compound 23] | 13.3 ± 0.9 | 22.3 ± 2 | > 50 | IC50 (hLDH5 (LDHA)): 5.58 ± 1.05 µM
CCCc1c(O)c(O)c(C(=O)O)c2cc(Cc3ccccc3)c(C)cc12 [FX-11] |  |  |  | IC50 [3]: 23.3 µM; progression of cancer xenografts [4]: inhibit the progression of human pancreatic and lymphoma cancer xenografts
COc1ncc(-c2ccc3c(Nc4cc(Oc5cc(F)cc(F)c5)cc(C(=O)O)c4)c(S(=O)(=O)NC4CC4)cnc3c2)c(OC)n1 [GSK2837808A] |  |  |  | IC50 (cancer cell growth): 2.97 µM; pharmacokinetics / clearance in vivo [5]: poor pharmacokinetics in vivo; EC50 (Snu398 cells): 2.9 µM
COC(=O)c1cc2c(C(F)(F)F)cc(-c3ccccc3)cc2n1O [NHI-2] |  |  |  | apoptosis and gemcitabine synergy (PDAC cells): induced apoptosis, and synergistically enhanced gemcitabine activity in PDAC cells; IC50 (PANC-1): 22.2 µM; IC50 [3]: 33.4 µM
GNE-140 |  |  |  | IC50 (cancer cell growth): 2 µM; IC50 (MIA PaCa-2): 2.05 µM; pharmacokinetics / clearance in vivo [5]: high clearance

Reference: US20240189276A1, “COMPOSITIONS COMPRISING LACTATE DEHYDROGENASE-A INHIBITORS AND METHODS OF PRODUCTION AND USE THEREOF” (Southwestern Oklahoma State University, priority 2022, published 2024)
